The text below walks through data of publication PMC5218480 (PLoS ONE, 2017).

Each structure is given as a SMILES string.

The experiment deals with MV-4-11 cells. Nature of the experiment: Gene expression microarray analysis (Affymetrix PrimeView) and GSEA. The experiment is classed as cell-based, human. The conditions noted are these: MV-4-11 cells, 48 hours. On the set-up: RFU PODN (11730768_x_at) / Fold change /veh PODN (11730768_x_at) / RFU LINC00158 (11744669_a_at) / Fold change /veh LINC00158 (11744669_a_at) / RFU DUSP10 (11751237_a_at) / Fold change /veh DUSP10 (11751237_a_at) / RFU ID3 (11757404_x_at) / Fold change /veh ID3 (11757404_x_at) / RFU PLEKHG5 (11737974_s_at) / Fold change /veh PLEKHG5 (11737974_s_at) / RFU LRRC4B (11730491_at) / Fold change /veh LRRC4B (11730491_at) / RFU GIMAP4 (11747438_a_at) / Fold change /veh GIMAP4 (11747438_a_at) / RFU KRT8 (11758183_x_at) / Fold change /veh KRT8 (11758183_x_at) / RFU CNN1 (11734310_a_at) / Fold change /veh CNN1 (11734310_a_at) / RFU VPS37D (11726825_at) / Fold change /veh VPS37D (11726825_at) / RFU C10orf10 (11716522_x_at) / Fold change /veh C10orf10 (11716522_x_at) / RFU KIR2DL2 /// KIR2DL4 /// KIR2DL5A /// KIR2DL5B /// KIR2DS1 /// KIR2DS2 /// KIR2DS3 /// KIR2DS4 /// KIR3DL3 /// KIR3DL3 /// KIR3DS1 (11738374_at) / Fold change /veh KIR2DL2 /// KIR2DL4 /// KIR2DL5A /// KIR2DL5B /// KIR2DS1 /// KIR2DS2 /// KIR2DS3 /// KIR2DS4 /// KIR3DL3 /// KIR3DL3 /// KIR3DS1 (11738374_at) / RFU C1QL1 (11718748_at) / Fold change /veh C1QL1 (11718748_at) / RFU TMPRSS4 (11747572_a_at) / Fold change /veh TMPRSS4 (11747572_a_at) / RFU HAMP (11756126_x_at) / Fold change /veh HAMP (11756126_x_at) / RFU RNFT2 (11725882_a_at) / Fold change /veh RNFT2 (11725882_a_at) / RFU NR4A2 (11747474_a_at) / Fold change /veh NR4A2 (11747474_a_at) / RFU ABCC12 (11746883_a_at) / Fold change /veh ABCC12 (11746883_a_at) / RFU TMEM136 (11760407_x_at) / Fold change /veh TMEM136 (11760407_x_at) / RFU CLDN22 /// WWC2 (11732394_at) / Fold change /veh CLDN22 /// WWC2 (11732394_at) / RFU HLA-DPB1 (11760878_x_at) / Fold change /veh HLA-DPB1 (11760878_x_at) / RFU SPINT1 (11716480_a_at) / Fold change /veh SPINT1 (11716480_a_at) / RFU GAP43 (11754022_s_at) / Fold change /veh GAP43 (11754022_s_at) / RFU A4GNT (11735810_at) / Fold change /veh A4GNT (11735810_at) / RFU PRB3 (11715151_x_at) / Fold change /veh PRB3 (11715151_x_at) / RFU TUBB4B (11761932_at) / Fold change /veh TUBB4B (11761932_at) / RFU CAPN14 (11732068_a_at) / Fold change /veh CAPN14 (11732068_a_at) / RFU TMCC2 (11721928_a_at) / Fold change /veh TMCC2 (11721928_a_at) / RFU IRGQ (11745062_a_at) / Fold change /veh IRGQ (11745062_a_at) / RFU FAM174B (11720279_a_at) / Fold change /veh FAM174B (11720279_a_at) / RFU TMPRSS4 (11748680_a_at) / Fold change /veh TMPRSS4 (11748680_a_at) / RFU FAM212B (11763350_a_at) / Fold change /veh FAM212B (11763350_a_at) / RFU PLEKHG5 (11743358_a_at) / Fold change /veh PLEKHG5 (11743358_a_at) / RFU ZSCAN30 (11745921_a_at) / Fold change /veh ZSCAN30 (11745921_a_at) / RFU CMKLR1 (11741424_a_at) / Fold change /veh CMKLR1 (11741424_a_at) / RFU LOC101060620 /// MAPK8IP1 (11723275_at) / Fold change /veh LOC101060620 /// MAPK8IP1 (11723275_at) / RFU SPTSSB (11747773_x_at) / Fold change /veh SPTSSB (11747773_x_at) / RFU PRSS12 (11739890_at) / Fold change /veh PRSS12 (11739890_at) / RFU BIN1 (11741810_x_at) / Fold change /veh BIN1 (11741810_x_at) / RFU WNT11 (11732464_a_at) / Fold change /veh WNT11 (11732464_a_at) / RFU C10orf10 (11716521_a_at) / Fold change /veh C10orf10 (11716521_a_at) / RFU C5orf56 (11738089_at) / Fold change /veh C5orf56 (11738089_at) / RFU CYB561 (11721691_x_at) / Fold change /veh CYB561 (11721691_x_at) / RFU ANKRD19P (11752326_a_at) / Fold change /veh ANKRD19P (11752326_a_at) / RFU OR2T12 /// OR2T33 /// OR2T8 (11738714_s_at) / Fold change /veh OR2T12 /// OR2T33 /// OR2T8 (11738714_s_at) / RFU VCAN (11748164_a_at) / Fold change /veh VCAN (11748164_a_at) / RFU JSRP1 (11732532_at) / Fold change /veh JSRP1 (11732532_at) / RFU KRTAP10-11 (11738290_x_at) / Fold change /veh KRTAP10-11 (11738290_x_at) / RFU MYO3A (11730013_a_at) / Fold change /veh MYO3A (11730013_a_at) / RFU EBF3 (11725865_a_at) / Fold change /veh EBF3 (11725865_a_at) / RFU CAMK2N1 (11719241_x_at) / Fold change /veh CAMK2N1 (11719241_x_at) / RFU C5orf56 (11738088_a_at) / Fold change /veh C5orf56 (11738088_a_at) / RFU OLFML3 (11715873_a_at) / Fold change /veh OLFML3 (11715873_a_at) / RFU LOC100653217 /// NTM (11731650_a_at) / Fold change /veh LOC100653217 /// NTM (11731650_a_at) / RFU MAPK11 (11762145_a_at) / Fold change /veh MAPK11 (11762145_a_at) / RFU FIZ1 (11724087_x_at) / Fold change /veh FIZ1 (11724087_x_at) / RFU OASL (11726364_x_at) / Fold change /veh OASL (11726364_x_at) / RFU SOX15 (11748057_x_at) / Fold change /veh SOX15 (11748057_x_at) / RFU CD79A (11719716_a_at) / Fold change /veh CD79A (11719716_a_at) / RFU HIST1H1D (11736915_at) / Fold change /veh HIST1H1D (11736915_at) / RFU CASKIN2 (11723855_a_at) / Fold change /veh CASKIN2 (11723855_a_at) / RFU LOC730098 (11760151_x_at) / Fold change /veh LOC730098 (11760151_x_at) / RFU OR4N2 (11742367_at) / Fold change /veh OR4N2 (11742367_at) / RFU PRRT2 (11749266_a_at) / Fold change /veh PRRT2 (11749266_a_at) / RFU SNX32 (11753110_a_at) / Fold change /veh SNX32 (11753110_a_at) / RFU CDHR5 (11726645_a_at) / Fold change /veh CDHR5 (11726645_a_at) / RFU RCAN1 (11760418_a_at) / Fold change /veh RCAN1 (11760418_a_at) / RFU FAM167A (11723789_a_at) / Fold change /veh FAM167A (11723789_a_at) / RFU FAM26E (11764081_at) / Fold change /veh FAM26E (11764081_at) / RFU ISYNA1 (11749810_s_at) / Fold change /veh ISYNA1 (11749810_s_at) / RFU ACY1 (11761880_at) / Fold change /veh ACY1 (11761880_at) / RFU 11764098_at / Fold change /veh 11764098_at / RFU SAMD14 (11745864_x_at) / Fold change /veh SAMD14 (11745864_x_at) / RFU NPB (11741838_a_at) / Fold change /veh NPB (11741838_a_at) / RFU TMPRSS6 (11731388_a_at) / Fold change /veh TMPRSS6 (11731388_a_at) / RFU KRTAP10-2 (11738614_at) / Fold change /veh KRTAP10-2 (11738614_at) / RFU ARHGAP8 /// PRR5-ARHGAP8 (11727945_x_at) / Fold change /veh ARHGAP8 /// PRR5-ARHGAP8 (11727945_x_at) / RFU KRTAP5-7 /// NADSYN1 (11734609_at) / Fold change /veh KRTAP5-7 /// NADSYN1 (11734609_at) / RFU RASL12 (11751679_a_at) / Fold change /veh RASL12 (11751679_a_at) / RFU CDKN2B (11736163_a_at) / Fold change /veh CDKN2B (11736163_a_at) / RFU PRF1 (11729649_at) / Fold change /veh PRF1 (11729649_at) / RFU, ZNF638 /// ZNF638-IT1 / Fold change vs veh, ZNF638 /// ZNF638-IT1 / RFU, PANK3 / Fold change vs veh, PANK3 / RFU, SH3YL1 / Fold change vs veh, SH3YL1 / RFU, ZEB2 / Fold change vs veh, ZEB2 / RFU, NRIP1 / Fold change vs veh, NRIP1 / RFU, PTTG1IP / Fold change vs veh, PTTG1IP / RFU, CAPN2 / Fold change vs veh, CAPN2 / RFU, MED14 / Fold change vs veh, MED14 / RFU, SNORA58 / Fold change vs veh, SNORA58 / RFU, C1orf63 / Fold change vs veh, C1orf63 / RFU, LRRFIP1 / Fold change vs veh, LRRFIP1 / RFU, NDUFAF7 / Fold change vs veh, NDUFAF7 / RFU, SLC12A2 / Fold change vs veh, SLC12A2 / RFU, IBTK / Fold change vs veh, IBTK / RFU, ESF1 / Fold change vs veh, ESF1 / Fold change vs veh, TMEM50B / RFU, TAOK1 / Fold change vs veh, TAOK1 / RFU, ACBD3 / Fold change vs veh, ACBD3 / RFU, TMA16 / Fold change vs veh, TMA16 / RFU, RWDD3 / Fold change vs veh, RWDD3 / RFU, BCAT1 / Fold change vs veh, BCAT1 / RFU, EDEM3 / Fold change vs veh, EDEM3 / RFU, TMEM33 / Fold change vs veh, TMEM33 / RFU, WDR75 / Fold change vs veh, WDR75 / RFU, AHCTF1 / Fold change vs veh, AHCTF1 / RFU, TFRC / Fold change vs veh, TFRC / RFU, ZDHHC17 / Fold change vs veh, ZDHHC17 / RFU, NOM1 / Fold change vs veh, NOM1 / RFU, ARL8B / Fold change vs veh, ARL8B / RFU, ZBTB11 / Fold change vs veh, ZBTB11 / RFU, TAMM41 / Fold change vs veh, TAMM41 / RFU, KIAA1704 /// LOC100996395 / Fold change vs veh, KIAA1704 /// LOC100996395 / RFU, ING1 / Fold change vs veh, ING1 / RFU, TRMT61B / Fold change vs veh, TRMT61B / RFU, FUBP3 / Fold change vs veh, FUBP3 / RFU, TP53 / Fold change vs veh, TP53 / RFU, TNKS2 / Fold change vs veh, TNKS2 / RFU, ZFP14 / Fold change vs veh, ZFP14 / RFU, ACTR2 / Fold change vs veh, ACTR2 / RFU, PPP3R1 / Fold change vs veh, PPP3R1 / RFU, PIK3R1 / Fold change vs veh, PIK3R1 / RFU, HNRNPA1 / Fold change vs veh, HNRNPA1 / RFU, RNF170 / Fold change vs veh, RNF170 / RFU, ZNF28 / Fold change vs veh, ZNF28 / RFU, RNGTT / Fold change vs veh, RNGTT / RFU, OGT / Fold change vs veh, OGT / RFU, BRD1 / Fold change vs veh, BRD1 / RFU, MARS / Fold change vs veh, MARS / RFU, ZNF655 / Fold change vs veh, ZNF655 / RFU, FAHD1 / Fold change vs veh, FAHD1 / RFU, BDP1 / Fold change vs veh, BDP1 / RFU, LRRCC1 / Fold change vs veh, LRRCC1 / RFU, ARID1A / Fold change vs veh, ARID1A / RFU, ZNF146 / Fold change vs veh, ZNF146 / RFU, ZNF330 / Fold change vs veh, ZNF330 / RFU, GPN3 / Fold change vs veh, GPN3 / RFU, C9orf123 / Fold change vs veh, C9orf123 / RFU, N4BP2L2 / Fold change vs veh, N4BP2L2 / RFU, ARFIP1 / Fold change vs veh, ARFIP1 / RFU, FAM179B / Fold change vs veh, FAM179B / RFU, BCL10 / Fold change vs veh, BCL10 / RFU, UHRF1BP1L / Fold change vs veh, UHRF1BP1L / RFU, BET1 / Fold change vs veh, BET1 / RFU, CNOT2 / Fold change vs veh, CNOT2 / RFU, ZNF268 / Fold change vs veh, ZNF268 / Fold change vs veh, ZNF507 / RFU, DGCR2 / Fold change vs veh, DGCR2 / RFU, WDSUB1 / Fold change vs veh, WDSUB1 / Fold change vs veh, HSP90B1 /// MIR3652 / RFU, ADSS / Fold change vs veh, ADSS / RFU, GK / Fold change vs veh, GK / RFU, ZNF148 / Fold change vs veh, ZNF148 / RFU, TAF9 / Fold change vs veh, TAF9 / RFU, SLC1A5 / Fold change vs veh, SLC1A5 / RFU, SLMO2 / Fold change vs veh, SLMO2 / RFU, ABCC4 / Fold change vs veh, ABCC4 / RFU, LOC101060439 /// RAP1B / Fold change vs veh, LOC101060439 /// RAP1B / RFU, RFX7 / Fold change vs veh, RFX7 / RFU, GTPBP10 / Fold change vs veh, GTPBP10 / RFU, CNEP1R1 / Fold change vs veh, CNEP1R1 / RFU, BIVM-ERCC5 /// ERCC5 / Fold change vs veh, BIVM-ERCC5 /// ERCC5 / RFU, ILF3 / Fold change vs veh, ILF3 / RFU 11762660_at / Fold change /veh 11762660_at / RFU VCAN (11757783_s_at) / Fold change /veh VCAN (11757783_s_at) / RFU DDX43 (11728927_at) / Fold change /veh DDX43 (11728927_at) / RFU KRT8 (11758188_x_at) / Fold change /veh KRT8 (11758188_x_at) / RFU NKD1 (11759106_at) / Fold change /veh NKD1 (11759106_at) / RFU SRD5A1 (11742802_a_at) / Fold change /veh SRD5A1 (11742802_a_at) / RFU TPSAB1 /// TPSB2 (11721975_s_at) / Fold change /veh TPSAB1 /// TPSB2 (11721975_s_at) / RFU GSTM3 (11746129_a_at) / Fold change /veh GSTM3 (11746129_a_at) / RFU IL23R (11737362_x_at) / Fold change /veh IL23R (11737362_x_at) / RFU TMEM51 (11727254_a_at) / Fold change /veh TMEM51 (11727254_a_at) / RFU PIWIL2 (11732686_x_at) / Fold change /veh PIWIL2 (11732686_x_at) / RFU ORM1 (11744905_x_at) / Fold change /veh ORM1 (11744905_x_at) / RFU CCDC152 (11743942_at) / Fold change /veh CCDC152 (11743942_at) / RFU ECM1 (11717891_a_at) / Fold change /veh ECM1 (11717891_a_at) / RFU IL23R (11748794_a_at) / Fold change /veh IL23R (11748794_a_at) / RFU TNFAIP8L3 (11732012_x_at) / Fold change /veh TNFAIP8L3 (11732012_x_at) / RFU MBOAT4 (11741988_at) / Fold change /veh MBOAT4 (11741988_at) / RFU 11764193_at / Fold change /veh 11764193_at / RFU TMEM53 (11763286_at) / Fold change /veh TMEM53 (11763286_at) / RFU MAGEB2 (11727129_at) / Fold change /veh MAGEB2 (11727129_at) / RFU TMEM200A (11744735_a_at) / Fold change /veh TMEM200A (11744735_a_at) / RFU CCDC152 (11751479_a_at) / Fold change /veh CCDC152 (11751479_a_at) / RFU FAM211A (11726209_a_at) / Fold change /veh FAM211A (11726209_a_at) / RFU RGS16 (11746705_a_at) / Fold change /veh RGS16 (11746705_a_at) / RFU VCAN (11755009_s_at) / Fold change /veh VCAN (11755009_s_at) / RFU RHOB (11743442_s_at) / Fold change /veh RHOB (11743442_s_at) / RFU RGS16 (11720943_a_at) / Fold change /veh RGS16 (11720943_a_at) / RFU RGS16 (11720944_at) / Fold change /veh RGS16 (11720944_at) / RFU, VPS4B / Fold change vs veh, VPS4B / RFU, CREB1 / Fold change vs veh, CREB1 / RFU, DNAJC13 / Fold change vs veh, DNAJC13 / RFU, GNAQ / Fold change vs veh, GNAQ / RFU, CDK5R1 / Fold change vs veh, CDK5R1 / RFU, ZRANB3 / Fold change vs veh, ZRANB3 / RFU, CUL4A / Fold change vs veh, CUL4A / RFU, CCNY / Fold change vs veh, CCNY / RFU, UFL1 / Fold change vs veh, UFL1 / RFU, COG3 / Fold change vs veh, COG3 / RFU, DIAPH2 / Fold change vs veh, DIAPH2 / RFU, SKA2 / Fold change vs veh, SKA2 / RFU, AFF3 / Fold change vs veh, AFF3 / RFU, LMF1 / Fold change vs veh, LMF1 / RFU, IPO11 / Fold change vs veh, IPO11 / RFU, DFFB / Fold change vs veh, DFFB / RFU, FOXP1 / Fold change vs veh, FOXP1 / RFU, CARD8 / Fold change vs veh, CARD8 / RFU, STRN3 / Fold change vs veh, STRN3 / RFU, ADK / Fold change vs veh, ADK / RFU, RASSF2 / Fold change vs veh, RASSF2 / RFU, WIPF1 / Fold change vs veh, WIPF1 / RFU, LARP1B / Fold change vs veh, LARP1B / RFU, RASA1 / Fold change vs veh, RASA1 / RFU, RB1 / Fold change vs veh, RB1 / RFU, PPFIA1 / Fold change vs veh, PPFIA1 / RFU, MAT2A / Fold change vs veh, MAT2A / RFU, CCT5 / Fold change vs veh, CCT5 / RFU, WDR92 / Fold change vs veh, WDR92 / RFU, CUX1 / Fold change vs veh, CUX1 / RFU, TTC7A / Fold change vs veh, TTC7A / RFU, TMEM135 / Fold change vs veh, TMEM135 / RFU, DEPTOR / Fold change vs veh, DEPTOR / RFU, CPM / Fold change vs veh, CPM / RFU, DNAJB6 / Fold change vs veh, DNAJB6 / RFU, CACNA2D3 / Fold change vs veh, CACNA2D3 / RFU, DTX4 / Fold change vs veh, DTX4 / RFU, TFCP2 / Fold change vs veh, TFCP2 / RFU, GMCL1 /// GMCL1P1 / Fold change vs veh, GMCL1 /// GMCL1P1 / RFU, AEBP2 / Fold change vs veh, AEBP2 / RFU, SNHG1 /// SNORD22 /// SNORD25 /// SNORD26 /// SNORD27 /// SNORD28 /// SNORD29 /// SNORD31 / Fold change vs veh, SNHG1 /// SNORD22 /// SNORD25 /// SNORD26 /// SNORD27 /// SNORD28 /// SNORD29 /// SNORD31 / Fold change (Aza/veh), C12orf56 (ProbeSet 11735607_a_at) / Fold change (ACY-1035/veh), C12orf56 (ProbeSet 11735607_a_at) / Fold change (Aza/veh), FGFR1OP (ProbeSet 11751329_s_at) / Fold change (ACY-1035/veh), FGFR1OP (ProbeSet 11751329_s_at) / Fold change (Aza/veh), VPS36 (ProbeSet 11739960_a_at) / Fold change (ACY-1035/veh), VPS36 (ProbeSet 11739960_a_at) / RFU SYPL1 (11715823_x_at) / Fold change /veh SYPL1 (11715823_x_at) / RFU IGFBP7 (11715501_s_at) / Fold change /veh IGFBP7 (11715501_s_at) / RFU REEP3 (11722064_at) / Fold change /veh REEP3 (11722064_at) / RFU IGLL1 (11728026_x_at) / Fold change /veh IGLL1 (11728026_x_at): dose or concentration left out as unconfirmed.

Consider `Nc1ccc(-c2cccs2)cc1NC(=O)c1ccc2c(c1)cc(C1CC1)n2CCN1CCOCC1` [ACY-1035], for which the “RFU FAM212B (11763350_a_at)” value is listed as 31.32 RFU.
